Source: patent US20230107642A1 (Erasca, Inc., priority 2020, published 2023)

Target: T1, Cys12 of the KRAS 4B G12C protein (Homo sapiens, UniProt P01116, G12C)
T1 construct: This protein contained 188 amino acids in total, including an N-terminal 6-Histidine tag; made in house; host or cells: E. coli BL21
Experiment: In vitro covalent adduct formation (CAF) assay, LC-MS intact mass
Format: binding
Details: for % CAF 10 uM @ 60 min: 10 uM compound, 60 min incubation
Method in brief: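 Percent covalent modification from intact-mass LC-MS, by relative free versus adducted protein (adducts within 1 Da of expected mass). Reaction: 10 μM compound with 5 μM E. coli-expressed, GDP-exchanged KRAS 4B G12C in TBS pH 7.4, 4% DMSO, 1 h at 22° C.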

| SMILES | % CAF 10 uM @ 60 min [%] | CAF (% after 1 hour) (10 μM compound, after 1 hour) [%] |
| --- | --- | --- |
| C=CC(=O)N1[C@H](C)CN(c2nc(=O)n3c4c(c(-c5ccc(F)cc5F)c(Cl)cc24)SC[C@@H]3COC)C[C@@H]1C [Example 1113, (3S)-7-((3S,5R)-4-acryloyl-3,5-dimethylpiperazin-1-yl)-9-chloro-10-(2,4-difluorophenyl)-3-(methoxymethyl)-2,3-dihydro-5H-[1,4]thiazino[2,3,4-ij]quinazolin-5-one] | 96.8 |  |
| C=CC(=O)N1CCN(c2nc(=O)n3c4c(c(-c5ccc(F)cc5)c(C(F)(F)F)cc24)SCC2(COC2)C3)CC1 [Example 1116, 8′-(4-acryloylpiperazin-1-yl)-11′-(4-fluorophenyl)-10′-(trifluoromethyl)-2′H,4′H,6′H-spiro[oxetane-3,3′-[1,4]thiazepino [2,3,4-ij]quinazolin]-6′-one] | 98.4 |  |
| C=CC(=O)N1[C@H](C)CN(c2nc(=O)n3c4c(c(-c5ccc(F)cc5)c(C(F)(F)F)cc24)SCC2(COC2)C3)C[C@@H]1C [Example 1117, 8′-((3S,5R)-4-acryloyl-3,5-dimethylpiperazin-1-yl)-11′-(4-fluorophenyl)-10′-(trifluoromethyl)-2′H,4′H,6′H-spiro[oxetane-3,3′-[1,4]thiazepino [2,3,4-ij]quinazolin]-6′-one] | 96.9 |  |
| C=CC(=O)N1[C@H](C)CN(c2nc(=O)n3c4c(c(-c5ccc(F)cc5)c(C(F)(F)F)cc24)SC[C@H](N2CCCC2)C3)C[C@@H]1C [Example 1118, (R)-8-((3S,5R)-4-acryloyl-3,5-dimethylpiperazin-1-yl)-11-(4-fluorophenyl)-3-(pyrrolidin-1-yl)-10-(trifluoromethyl)-3,4-dihydro-2H,6H-[1,4]thiazepino [2,3,4-ij]quinazolin-6-one] | 95.7 |  |
| C=CC(=O)N1C[C@H](C)N(c2nc(=O)n3c4c(c(-c5cc(Cl)c(F)cc5F)c(C(F)(F)F)cc24)SCC2(COC2)C3)C[C@H]1C [Example 1122, 8′-((2S,5R)-4-acryloyl-2,5-dimethylpiperazin-1-yl)-11′-(5-chloro-2,4-difluorophenyl)-10′-(trifluoromethyl)-2′H,4′H,6′H-spiro[oxetane-3,3′-[1,4]thiazepino [2,3,4-ij]quinazolin]-6′-one] | 74.3 |  |
| C=CC(=O)N1CCN(c2nc(=O)n3c4c(c(-c5ccc(F)cc5F)c(C(F)(F)F)cc24)SCC2(COC2)C3)CC1 [Example 1123, 8′-(4-acryloylpiperazin-1-yl)-11′-(2,4-difluorophenyl)-10′-(trifluoromethyl)-2′H,4′H,6′H-spiro[oxetane-3,3′-[1,4]thiazepino [2,3,4-ij]quinazolin]-6′-one] | 95.2 |  |
| C=CC(=O)N1[C@H](C)CN(c2nc(=O)n3c4c(c(-c5cc(Cl)c(F)cc5F)c(C(F)(F)F)cc24)SC[C@H](N2CCCC2)C3)C[C@@H]1C [Example 1129, (3R)-8-((3S,5R)-4-acryloyl-3,5-dimethylpiperazin-1-yl)-11-(5-chloro-2,4-difluorophenyl)-3-(pyrrolidin-1-yl)-10-(trifluoromethyl)-3,4-dihydro-2H,6H-[1,4]thiazepino [2,3,4-ij]quinazolin-6-one] | 69 |  |
| C=CC(=O)N1[C@H](C)CN(c2nc(=O)n3c4c(c(-c5ccc(F)cc5)c(C(F)(F)F)cc24)SC[C@@H](N2CCOCC2)C3)C[C@@H]1C [Example 1134, (S)-8-((3S,5R)-4-acryloyl-3,5-dimethylpiperazin-1-yl)-11-(4-fluorophenyl)-3-morpholino-10-(trifluoromethyl)-3,4-dihydro-[1,4]thiazepino [2,3,4-ij]quinazolin-6(2H)-one] | 76.8 |  |
| O=C1CC2CN(c3nc(=O)n4c5c(c(-c6ccc(F)cc6F)c(C(F)(F)F)cc35)SCCC4)CC(C1)N2C(=O)/C=C/CF [Example 1200, (E)-11-(2,4-difluorophenyl)-8-(9-(4-fluorobut-2-enoyl)-7-oxo-3,9-diazabicyclo[3.3.1]nonan-3-yl)-10-(trifluoromethyl)-3,4-dihydro-2H,6H-[1,4]thiazepino[2,3,4-ij]quinazolin-6-one] |  | 73 |
